Reference: publication PMC8146789, “20-Hydroxyecdysone, from Plant Extracts to Clinical Use: Therapeutic Potential for the Treatment of Neuromuscular, Cardio-Metabolic and Respiratory Diseases” (Biomedicines, 2021)

Key:
[1] = repeated dose toxicity study (26-week); conditions: rat, in vivo; rats, 26-week repeated dose; Biophytis, unpublished data; read-out: No Observed Adverse Effect Level (NOAEL)
Text: More recently, a purified to pharmaceutical grade 20E (≥97% 20E purity) was used as a drug candidate in preclinical regulatory studies including safety pharmacology, genotoxicity and repeated toxicology in rodents (rats) and non-rodents (dog).

C2C12 cells = tested on: C2C12 cells; design: method as in ref [103] = [103]; 103. Dilda P. Foucault A.S. Serova M. On S. Raynal S. Veillet S. Dioh W. Lafont R. BIO101, a drug candidate targeting Mas receptor for the treatment of age-reated muscle degeneration. From molecular t; conditions: C2C12 myotubes, ref [103], cited from earlier work
[2] = tested on: myostatin gene expression in C2C12 cells; conditions: C2C12 myotubes, ref [103], cited from earlier work
Erβ [3] = tested on: Erβ; design: method as in PMID 24974955; conditions: ref [54]; cited from earlier work
Erβ [4] = tested on: Erβ; design: method as in PMID 18220764; conditions: cited from earlier work
[5] = design: method as in PMID 33819630; conditions: male Wistar rats, oral [3H]20E; ref [127]; cited from earlier work
[6] = design: method as in doi:10.1055/s-0032-1320426; conditions: ref [171],[172], cited from earlier work
[7] = design: method as in doi:10.1055/s-0032-1320426; conditions: ovariectomized rats, p < 0.05; ref [171],[172]; cited from earlier work
rabbits = conditions: up to 100 mg/kg, ref [121]; cited from earlier work
[8] = cited from earlier work
[9] = slightly overweight persons, 200 mg daily
[10] = humans, ingestion of 434 mg, ref [134]
[11] = humans, single oral intake of 20 mg, RIA and LC-MS

**Q.** With `CC(C)(O)CC[C@@H](O)[C@](C)(O)[C@H]1CC[C@@]2(O)C3=CC(=O)[C@@H]4C[C@@H](O)[C@@H](O)C[C@]4(C)[C@H]3CC[C@]12C` [20E, 2β,3β,14α,20R,22R,25-hexahydroxy-5β-cholest-7-en-6-one] as the compound, how does the NOAEL at 26 week [1] read?
**A.** 1000 mg/kg

**Q.** What about the “optimal concentration for anabolic effect on protein synthesis” value (C2C12 cells; 0.01–10 μM tested) of the same compound?
**A.** 1 µM

**Q.** And the “protein synthesis stimulatory activity” value (C2C12 cells; 20E 0.01–10 μM, IGF-1 100 ng/mL)?
**A.** equally active as insulin-like growth factor-1 (IGF-1)

**Q.** What about the “concentration with significant difference from control in myostatin gene expression” value ([2]; 0.001 to 10 μM tested) of the same compound?
**A.** 1 to 10 µM

**Q.** What about the myostatin gene expression ([2]; 6 h treatment) of the same compound?
**A.** mimics the effect of IGF-1 in a dose-dependent manner

**Q.** And the “activation of ERE reporter gene” value (Erβ [3])?
**A.** could be activated dose dependently

**Q.** What about the “binding to nuclear receptor” value (Erβ [4]) of the same compound?
**A.** negative

**Q.** What about the “radioactivity in urine, of the total radioactivity recovered” value [5] of the same compound?
**A.** 1.40%

**Q.** What about the “time to completed elimination of 20E and its metabolites” value [5] of the same compound?
**A.** ≤ 48 h

**Q.** And the “output of trial in menopause disorders” value ([6]; overweight, 100 or 200 mg/day, 3 months)?
**A.** Prevention of metabolic syndrome and osteoporosis, reduction in body weight, reduction in plasma cholesterol and CRP; proposed for hormone replacement therapy

**Q.** What about the “increase of HDL” value [6, 9] of the same compound?
**A.** 10.8%

**Q.** And the “reduction of LDL” value [6, 9]?
**A.** 13.9%

**Q.** What about the “reduction of serum cholesterol” value [6, 9] of the same compound?
**A.** 10.2%

**Q.** And the reduction of triglycerides [6, 9]?
**A.** 31.1%

**Q.** And the “reduction of waist circumference” value [6, 9]?
**A.** 2.7 cm

**Q.** And the “abdominal, bone marrow and joint fat” value [7]?
**A.** reduced the amount of abdominal, bone marrow and joint fat

**Q.** What about the effects after administration (rabbits) of the same compound?
**A.** no effects were seen

**Q.** And the “total urinary excretion of 20E” value [8, 10]?
**A.** 5 mg

**Q.** And the “urinary excretion, of the ingested amount” value [8, 10]?
**A.** approximately 1%

**Q.** And the urinary peak level ([8]; humans, ingestion of ca. 15 mg, ref Simon and Koolman [132])?
**A.** approximately 0.5 μM

**Q.** What about the “time of urinary peak of detectable ecdysteroids” value [8, 11] of the same compound?
**A.** 3 to 4 h

**Q.** What about the “total quantity of detectable ecdysteroids in urine” value [8, 11] of the same compound?
**A.** 1 to 2 mg

**Q.** What about the “effective half-time of elimination from the blood” value ([8]; in vivo) of the same compound?
**A.** 9 h

**Q.** And the “effective half-time of elimination from the urine” value ([8]; in vivo)?
**A.** 3.3 h

**Q.** What about the “time of plasma titre maximum” value ([8]; in vivo) of the same compound?
**A.** ca. 30 min
